Results as given in patent US7935377B2, “Crystals of free (2R, 4R)-monatin and use thereof” (Ajinomoto Co., Inc., priority 2004, dated 2011).
Like-named read-outs stand apart in the source and are kept apart here.

Assays:
[1] = Hygroscopic property test (25° C., humidity 95%); format: physicochemical; conditions: for absorbed water: after 24 hours, 95% high humidity condition; for Increase percentage (absorbed water amount) / Weight: 25° C., humidity 95%; for water absorption: high humidity condition
Procedure: The crystals of free (2R,4R)-monatin (sample 1) prepared in Comparative Example 1, crystal of the potassium salt of (2R,4R)-monatin monohydrate (sample 2), and an amorphous solid of the potassium salt of (2R,4R)-monatin (sample 3) separately prepared were weighed out in an amount of 0.5 g, respectively, each was placed in a petri dish, and stored (retained) under a high humidity condition of 95% and a temperature of 25° C. After retention times of 1, 3, 6 and 24 hours, the weight of each sample was measured. The measuring conditions were as follows.
Apparatus name: HIFLEX TH401 supplied from ETAC.
Storing condition: 25° C., humidity of 95%.
Sample container: diameter of 25 cm, glass petri dish.

[2] = sodium salt of stereoisomer, 5% sucrose solution as control, optical purity 99% or more, cited from earlier work
[3] = cited from earlier work; for intensity of sweet taste: Nakamura et al., hydrochloride salts
[4] = Sweetness intensity of crystals of free (2R,4R)-monatin compared with an aqueous solution of 5% sucrose
Procedure: It was identified that the sweetness intensity (degree of sweetness) of the present crystals of free (2R,4R)-monatin is about 2500 times that of an aqueous solution of 5% sucrose. This sweetness intensity is nearly equivalent to the sweetness intensity (about 2700 times) of the crystals of the sodium salt of (2R,4R)-monatin evaluated by the inventors in Amino, Y. et al., WO 2003045914 A1.
1.05 mg of crystals of free (2R,4R)-monatin described in the above Comparative Example 1 were dissolved in 20 ml of ion-exchanged water. A solution was prepared by diluting this solution 2.5 times. The sweetness of this aqueous solution of the free compound of (2R,4R)-monatin was compared with that of an aqueous solution of 5% sucrose separately prepared.

Row | Molecule | Increase percentage (absorbed water amount) ([1]; retention time 0 hrs) [%] | Weight ([1]; retention time 0 hrs) [g] | Increase percentage (absorbed water amount) ([1]; retention time 1 hr) [%] | Weight ([1]; retention time 1 hr) [g] | Increase percentage (absorbed water amount) ([1]; retention time 3 hrs) [%] | Weight ([1]; retention time 3 hrs) [g] | Increase percentage (absorbed water amount) ([1]; retention time 6 hrs) [%] | Weight ([1]; retention time 6 hrs) [g] | Increase percentage (absorbed water amount) ([1]; retention time 24 hrs) [%] | Weight ([1]; retention time 24 hrs) [g] | degree of sweetness [2] [times] | also measured
1 | potassium salt of (2R,4R)-monatin [Sample 3] | 0.00 | 0.5014 | 8.82 | 0.5456 | 8.58 | 0.5444 | 7.30 | 0.5383 | 7.30 | 0.5380 | – | absorbed water [1]: 7.3 wt. %
2 | N[C@@H](C[C@](O)(Cc1c[nH]c2ccccc12)C(=O)O)C(=O)O [(2S,4R)-monatin substance, (2S,4R)-monatin] | – | – | – | – | – | – | – | – | – | – | 300 | –
3 | N[C@H](C[C@@](O)(Cc1c[nH]c2ccccc12)C(=O)O)C(=O)O [(2R,4S)-monatin substance, (2R,4S)-monatin] | – | – | – | – | – | – | – | – | – | – | 1300 | –
4 | potassium salt of (2R,4R)-monatin monohydrate [Sample 2] | 0.00 | 0.5007 | 1.08 | 0.5061 | 3.71 | 0.5193 | 4.89 | 0.5252 | 5.39 | 0.5277 | – | absorbed water [1]: 5.4 wt. %
5 | NC(CC(O)(Cc1c[nH]c2ccccc12)C(=O)O)C(=O)O [synthetic (2S,4S)-monatin, (2S,4S)-monatin] | – | – | – | – | – | – | – | – | – | – | – | intensity of sweet taste [3]: equivalent to that of the natural specimen of monatin
6 | N[C@H](CC(O)(Cc1c[nH]c2ccccc12)C(=O)O)C(=O)O (stereo partly drawn) [Sample 1, (2R,4R)-monatin] | 0.00 | 0.5000 | 0.00 | 0.5000 | 0.00 | 0.4996 | 0.00 | 0.5001 | 0.00 | 0.4997 | – | sweetness compared with aqueous solution of 5% sucrose ([4]; 1.05 mg in 20 ml ion-exchanged water, diluted 2.5 times): nearly equivalent sweetness intensity; sweetness intensity (degree of sweetness) ([4]; relative to an aqueous solution of 5% sucrose): about 2500 times; water absorption ([1]; listed as crystal of free (2R,4R)-monatin): scarcely absorbs water; water absorption ([1]; listed as crystals of free (2R,4R)-monatin): no water absorption
7 | N[C@@H](C[C@](O)(Cc1c[nH]c2ccccc12)C(=O)O)C(=O)O [synthetic (2S,4R)-monatin, (2S,4R)-monatin] | – | – | – | – | – | – | – | – | – | – | – | intensity of sweet taste [3]: slightly sweet taste; intensity of sweet taste ([3]; listed as hydrochloride salt of (2S,4R)-monatin): almost no sweetness
8 | NC(CC(O)(Cc1c[nH]c2ccccc12)C(=O)O)C(=O)O [(2S,4S)-monatin substance, (2S,4S)-monatin] | – | – | – | – | – | – | – | – | – | – | 50 | –
9 | N[C@H](C[C@](O)(Cc1c[nH]c2ccccc12)C(=O)O)C(=O)O [(2R,4R)-monatin substance, (2R,4R)-monatin] | – | – | – | – | – | – | – | – | – | – | 2700 | degree of sweetness ([2]; listed as (2R,4R)): 2700 times; degree of sweetness ([2]; listed as crystals of the sodium salt of (2R,4R)-monatin): about 2700 times
10 | N[C@@H](C[C@@](O)(Cc1c[nH]c2ccccc12)C(=O)O)C(=O)O [(2S,4S)-monatin, (2S,4S)-2-amino-4-carboxy-4-hydroxy-5-(3-indolyl)-pentanoic acid] | – | – | – | – | – | – | – | – | – | – | – | sweetness intensity ([3]; times that of sucrose, Vleggaar et al.): 800 to 1400 times
